Where no end group is shown, it is not given here.
What was measured:
ECE-1 = molecular target: T1, ECE-1 (Bos taurus, UniProt P42891); assay: Protease inhibitor assay of ECE-1, solubilized CHO/ECE-1 membranes, big ET-1 conversion, pH 6.8; assay type: biochemical, bovine; details: for Percent ECE-1 activity remaining with inhibitor (of control): Inhibitor 100 μM, solubilized CHO/ECE-1 membranes, control 100; for inhibition of ECE-1: sensitivity to protease inhibitors, Table 2
T1 construct: made in house
T1 sequence (P42891 1-754): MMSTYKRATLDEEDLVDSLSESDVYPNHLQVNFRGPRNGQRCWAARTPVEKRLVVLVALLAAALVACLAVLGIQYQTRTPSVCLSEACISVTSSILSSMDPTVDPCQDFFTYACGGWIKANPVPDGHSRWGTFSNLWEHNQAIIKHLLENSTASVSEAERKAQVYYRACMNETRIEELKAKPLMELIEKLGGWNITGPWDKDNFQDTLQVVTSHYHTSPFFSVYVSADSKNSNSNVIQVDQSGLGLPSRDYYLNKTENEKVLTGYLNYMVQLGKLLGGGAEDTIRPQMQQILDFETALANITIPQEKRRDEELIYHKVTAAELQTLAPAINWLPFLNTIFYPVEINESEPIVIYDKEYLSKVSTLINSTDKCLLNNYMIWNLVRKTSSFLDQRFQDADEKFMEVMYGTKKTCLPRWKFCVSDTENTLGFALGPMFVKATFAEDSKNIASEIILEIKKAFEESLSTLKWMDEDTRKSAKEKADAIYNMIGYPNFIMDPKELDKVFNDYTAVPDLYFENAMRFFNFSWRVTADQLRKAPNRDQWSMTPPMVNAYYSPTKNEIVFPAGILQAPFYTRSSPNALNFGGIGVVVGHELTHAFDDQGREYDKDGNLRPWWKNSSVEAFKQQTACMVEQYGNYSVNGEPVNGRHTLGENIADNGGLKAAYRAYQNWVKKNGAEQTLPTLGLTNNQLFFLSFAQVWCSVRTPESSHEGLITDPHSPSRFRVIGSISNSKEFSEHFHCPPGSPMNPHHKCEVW
Procedure: Solubilized crude membranes were prepared in parallel from CHO/ECE-2 and CHO/ECE-1 cells as described (Xu et al., 1994). For protease inhibitor studies, membranes were prepared without protease inhibitors. Standard reaction mixtures for the ECE-2 assay (50 μl) contained 0.1M 2-[N-morpholino]ethanesulfonic acid (MES) buffer (pH 5.5), 0.5M NaCl, 0.1 μM human big ET-1 and an enzyme fraction. ECE-1 assay reactions contained 0.1M phosphate buffer (pH 6.8) instead of the MES buffer. For the pH profiling and isopeptide selectivity studies, the buffer solution (0.1M) or the substrate (0.1 μM) was substituted as designated. For the inhibitor studies, the reactions were preincubated at 37° C. with protease inhibitor or vehicle for 15 min. Reactions were started by the addition of substrate, and incubated at 37° C. for 30 min in siliconized 0.5-ml microcentrifuge tubes. […] The mixture was then directly assayed for mature ET-1 as described (Suzuki et al., 1989). Duplicate assay wells were used for each enzyme reaction. […] Protein concentrations were determined by the Bradford method (Bio-Rad) using IgG as standard.

ECE-2 = molecular target: T2, ECE-2 (Bos taurus, UniProt P0DPE2); assay: Protease inhibitor assay of ECE-2, solubilized CHO/ECE-2 membranes, big ET-1 conversion, pH 5.5; assay type: biochemical, bovine; details: for Percent of control ECE-2 activity remaining with inhibitor: Inhibitor 100 μM, solubilized CHO/ECE-2 membranes, control 100; for inhibition of ECE-2: in vitro sensitivity to inhibitors
T2 construct: solubilized crude membranes or live cells
T2 sequence (P0DPE2 97-883): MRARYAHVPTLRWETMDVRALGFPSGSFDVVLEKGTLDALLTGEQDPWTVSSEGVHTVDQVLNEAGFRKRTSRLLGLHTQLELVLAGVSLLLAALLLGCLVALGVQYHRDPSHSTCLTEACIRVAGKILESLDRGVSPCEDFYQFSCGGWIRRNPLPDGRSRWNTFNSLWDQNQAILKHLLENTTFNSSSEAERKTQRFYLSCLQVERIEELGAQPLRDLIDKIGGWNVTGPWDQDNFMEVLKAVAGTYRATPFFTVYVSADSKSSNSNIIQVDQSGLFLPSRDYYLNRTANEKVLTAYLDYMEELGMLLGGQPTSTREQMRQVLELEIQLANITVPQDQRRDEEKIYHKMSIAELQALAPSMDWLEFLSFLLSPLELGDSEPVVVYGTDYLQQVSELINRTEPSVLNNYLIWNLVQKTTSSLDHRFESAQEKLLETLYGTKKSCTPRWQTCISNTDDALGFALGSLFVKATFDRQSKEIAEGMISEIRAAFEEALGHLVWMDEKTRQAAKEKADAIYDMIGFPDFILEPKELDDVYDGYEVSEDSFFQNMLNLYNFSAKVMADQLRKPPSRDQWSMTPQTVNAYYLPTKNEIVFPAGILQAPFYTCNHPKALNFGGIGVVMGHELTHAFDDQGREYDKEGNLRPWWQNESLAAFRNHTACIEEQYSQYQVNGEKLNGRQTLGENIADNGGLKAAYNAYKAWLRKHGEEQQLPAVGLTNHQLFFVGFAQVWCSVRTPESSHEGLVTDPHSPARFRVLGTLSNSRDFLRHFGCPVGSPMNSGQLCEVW
Procedure: In all subsequent studies, ECE-2 assays were performed at pH 5.5.
Solubilized crude membranes were prepared in parallel from CHO/ECE-2 and CHO/ECE-1 cells as described (Xu et al., 1994). For protease inhibitor studies, membranes were prepared without protease inhibitors. Standard reaction mixtures for the ECE-2 assay (50 μl) contained 0.1M 2-[N-morpholino]ethanesulfonic acid (MES) buffer (pH 5.5), 0.5M NaCl, 0.1 μM human big ET-1 and an enzyme fraction. […] For the inhibitor studies, the reactions were preincubated at 37° C. with protease inhibitor or vehicle for 15 min. Reactions were started by the addition of substrate, and incubated at 37° C. for 30 min in siliconized 0.5-ml microcentrifuge tubes. […] The mixture was then directly assayed for mature ET-1 as described (Suzuki et al., 1989). Duplicate assay wells were used for each enzyme reaction.

[1] = Stability of big and mature endothelin isopeptides with crude membrane proteins, ECE-2 assay conditions (pH 5.6); assay type: physicochemical

| Compound | inhibition of ECE-2 (ECE-2) | rate of degradation among isopeptides [1] | other results |
| --- | --- | --- | --- |
| N=C(N)c1ccc(CS(=O)(=O)F)cc1 [APMSF, 4-amidinophenylmethylsulphonyl fluoride] |  |  | Percent ECE-1 activity remaining with inhibitor (of control) (ECE-1): 107%; Percent of control ECE-2 activity remaining with inhibitor (ECE-2): 93% |
| C[C@H](CS)C(=O)N1CCC[C@H]1C(=O)O [Captopril] | not inhibited |  | inhibition of ECE-1 (ECE-1): not inhibited |
| ET-3: Synthetic human ET-3 |  | degraded at similar rates |  |
| O=S(=O)(O)c1cc[c]([Hg][Cl])cc1 [pCMS, p-chloromercuriphenylsulphonic acid] | augmented the activity of ECE-2 |  | Percent ECE-1 activity remaining with inhibitor (of control) (ECE-1): 136%; Percent of control ECE-2 activity remaining with inhibitor (ECE-2): 345% |
| ET-2: Synthetic human ET-2 (CSCSSWLDKECVYFCHLDIIW; ends and bridges not checked; cysteine pairing not given here; UniProt P20800 49-69, looked up) |  | degraded at similar rates |  |
| ET-1: Synthetic human ET-1; 21-amino-acid peptide |  | degraded at similar rates |  |
| O=C(O)CNC(=O)C(CS)Cc1ccccc1 (stereo not drawn) [Thiorphan] | not inhibited |  | inhibition of ECE-1 (ECE-1): not inhibited |
